Consider 2 compounds from paper PMC12062478, “Screening herbal and natural product libraries to aid discovery of novel allosteric modulators of human P2X7” (Purinergic Signalling, 2024).

Where only a bound is given, the exact number is not on record here.

For one data set, the target named is T1, P2X7 (Homo sapiens, UniProt Q99572).
T1 construct: expressed in transfected cells
T1 sequence (Q99572 1-595): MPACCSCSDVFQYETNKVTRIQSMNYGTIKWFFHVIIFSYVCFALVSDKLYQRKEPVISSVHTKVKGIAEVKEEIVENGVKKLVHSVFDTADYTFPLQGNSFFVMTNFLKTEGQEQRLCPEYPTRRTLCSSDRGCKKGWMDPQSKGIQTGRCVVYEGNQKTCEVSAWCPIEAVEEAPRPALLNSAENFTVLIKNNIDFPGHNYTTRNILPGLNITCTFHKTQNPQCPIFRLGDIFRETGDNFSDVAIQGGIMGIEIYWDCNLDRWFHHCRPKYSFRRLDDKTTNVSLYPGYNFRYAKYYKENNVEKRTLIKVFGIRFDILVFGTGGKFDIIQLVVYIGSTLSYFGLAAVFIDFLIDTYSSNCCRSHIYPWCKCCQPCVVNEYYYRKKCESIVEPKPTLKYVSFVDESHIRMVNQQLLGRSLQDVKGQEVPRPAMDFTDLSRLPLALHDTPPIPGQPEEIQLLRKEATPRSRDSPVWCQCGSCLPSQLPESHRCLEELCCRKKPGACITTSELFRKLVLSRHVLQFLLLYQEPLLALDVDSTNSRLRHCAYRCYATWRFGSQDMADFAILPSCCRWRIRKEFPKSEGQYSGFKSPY
Briefly: ATP-induced YO-PRO-1 dye uptake in HEK-hP2X7 cells. The data set is classed as cell-based. The method, then: HEK-hP2X7 or HEK-hP2X4 cells were plated at 2.5 × 10^4 cells per well (100 µL volume) the day before experiments into poly-D-lysine (Merck Millipore) coated 96-well plates (NUNC, Fisher Scientific #167-008). The membrane impermeant dye YO-PRO-1 iodide (Life Technologies, Fisher Scientific) was used at a final concentration of 2 µM in low divalent buffer (145 mM NaCl, 5 mM KCl, 0.2 mM CaCl2, 13 mM glucose, 10 mM HEPES, pH 7.3, osm 300–310). Media were removed from the plate, and 90 µL of YO-PRO-1 buffer was added per well. Plates were warmed to 37 °C for 5 min before recording. Data was acquired on a Flexstation 3 plate reader (Molecular Devices) using excitation wavelength 490 nm, emission wavelength 520 nm, and six reads per well (PMT medium). […] […] Pipette height was set to 80 µL and the rate of injection was 4.
YO-PRO-1 dye uptake assay data is plotted as a percentage of control where control responses are measured in the absence of plant extract. Cell viability data is plotted as a percentage of control or background-corrected fluorescence data. Concentration–response graphs were plotted using GraphPad Prism v6 with a non-linear regression fit (variable slope). IC50 values were generated from collated datasets from a minimum of three independent experiments. Statistical differences were determined by one-way ANOVA statistical tests performed using GraphPad Prism v6 with Dunnett’s multiple comparison post hoc test. Significance was taken as P ≤ 0.05.
We acquired a natural product library (Set IV) containing 419 compounds from NCI DTP and tested these on P2X7 responses using a YO-PRO-1 dye uptake in HEK293 cells stably expressing human P2X7 (HEK-hP2X7). […] This allowed us to assess for any immediate effect of the injected compound, and secondly, it allowed for any potential negative modulators to be pre-incubated with P2X7.

In a further data set the test system is HEK-293 cells. As to the kind of experiment: Cell viability assay (AlamarBlue) in non-transfected HEK-293 cells. The data set is classed as cell-based, human. As to conditions: 10 µM, 24 h. The method, then: Cells were plated at 2 × 10^4 cells/well in Nunc 96-well plates (Fisher Scientific #167-008) 24 h prior to stimulation with ATP 500 µM or 3 mM in combination with identified positive or negative crude plant extracts, respectively, or with purified compounds (10 µM) for 24 h. Following incubation, resazurin (0.1 mg/mL in PBS, Sigma-Aldrich) was added to cells for 2 h at 37 °C and fluorescence was measured on a Flexstation 3 plate reader (excitation 570 nm; emission 600 nm).
(§1) Fig. 6 Dioscin enhances P2X7-dependent pore formation and potentiates channel opening. A Dioscorea nipponica (organic) plant extract (30 µg/mL) increased ATP-dependent YO-PRO-1 iodide uptake. AZ10606120 (10 µM, grey bars) was added to block hP2X7. B YO-PRO-1 uptake following a co-stimulation of HEK-hP2X7 cells with 200 µM ATP ± the named compounds in the presence or absence of AZ10606120. YO-PRO-1 uptake was quantified between 50 and 300 s (n = 5). C Whole-cell patch-clamp recordings were performed at room temperature. Cells were voltage-clamped at − 60 mV, and responses to a 5-s stimulation of ATP (100 µM) followed by a 5-s stimulation of ATP (100 µM) + dioscin/diosgenin (10 µM) were measured from HEK-hP2X7 cells. Representative traces are shown. D Summary of normalised current amplitudes represented as a fold change compared to ATP responses in the absence of dioscin/diosgenin (n = 10–18 cells). […]
On the technique in general: Alamar Blue is a resazurin reagent that responds to reducing activity.

The target of the next data set is T2, hP2X7 (Homo sapiens, UniProt Q99572).
T2 sequence (Q99572 1-595): T1 sequence (Q99572 1-595)
Briefly: Whole-cell patch-clamp electrophysiology in HEK-hP2X7 cells. The data set is classed as cell-based. The method, then:
Stably expressing HEK-hP2X7 cells were plated onto 13-mm glass coverslips 24 h prior to use. Membrane currents were recorded in the whole-cell patch-clamp configuration using an EPC10 amplifier (HEKA Elektronik) and borosilicate glass electrodes (TF-150 World Precision Instruments), resistance […] when filled with standard internal solution (145 mM NaCl, 10 mM HEPES, 10 mM EGTA, pH 7.3). Cells were voltage-clamped at − 60 mV, and dialysis of intracellular contents was performed for 1 min prior to experimental procedures. Cells were continuously perfused by gravity feed with standard divalent buffer solution (145 mM NaCl, 5 mM KCl, 2 mM CaCl2, 1 mM MgCl2, 13 mM glucose, 10 mM HEPES, pH 7.3) prior to seal formation, and low divalent buffer solution was used for agonist and PAM application. Agonists were applied using a computer-controlled fast-flow system (RSC-160; Bio-Logic Scientific Instruments) with the perfusion capillaries placed in close proximity to the cell under investigation.
as §1, with “cells). E Concentration response to ATP in the presence of dioscin (10 µM, green) or vehicle (DMSO, black) using YO-PRO-1 uptake assay in HEK-hP2X7 and F HEK-293 cells.” for “cells).”

Data set [1] relates to non-transfected HEK-293 cells. Briefly: YO-PRO-1 dye uptake in non-transfected HEK-293 cells. The note with it: 10 µM, in the presence of ATP. It counts as cell-based, human. The method, then: HEK-hP2X7 or HEK-hP2X4 cells were plated at 2.5 × 10^4 cells per well (100 µL volume) the day before experiments into poly-D-lysine (Merck Millipore) coated 96-well plates (NUNC, Fisher Scientific #167-008). The membrane impermeant dye YO-PRO-1 iodide (Life Technologies, Fisher Scientific) was used at a final concentration of 2 µM in low divalent buffer (145 mM NaCl, 5 mM KCl, 0.2 mM CaCl2, 13 mM glucose, 10 mM HEPES, pH 7.3, osm 300–310). Media were removed from the plate, and 90 µL of YO-PRO-1 buffer was added per well. Plates were warmed to 37 °C for 5 min before recording. Data was acquired on a Flexstation 3 plate reader (Molecular Devices) using excitation wavelength 490 nm, emission wavelength 520 nm, and six reads per well (PMT medium). Compounds or plant extracts at 10X final concentration were automatically injected at 30 s, and then, ATP was automatically injected at 90 s from a 96-well V-bottomed drug plate (Greiner). This enabled cells to be pre-treated with compounds/plant extracts for 60 s before the agonist was injected. […]
Fig. 6 Dioscin enhances P2X7-dependent pore formation and potentiates channel opening. […] YO-PRO-1 uptake was quantified between 50 and 300 s (n = 5). […] Cells were voltage-clamped at − 60 mV, and responses to a 5-s stimulation of ATP (100 µM) followed by a 5-s stimulation of ATP (100 µM) + dioscin/diosgenin (10 µM) were measured from HEK-hP2X7 cells. […]

For a further data set, the system named is HEK293 cells. As to the kind of experiment: Propidium iodide staining of HEK293 cells (membrane permeabilisation). The data set is classed as cell-based, human. The method, then:
Fig. 6 Dioscin enhances P2X7-dependent pore formation and potentiates channel opening. A Dioscorea nipponica (organic) plant extract (30 µg/mL) increased ATP-dependent YO-PRO-1 iodide uptake. AZ10606120 (10 µM, grey bars) was added to block hP2X7. B YO-PRO-1 uptake following a co-stimulation of HEK-hP2X7 cells with 200 µM ATP ± the named compounds in the presence or absence of AZ10606120. YO-PRO-1 uptake was quantified between 50 and 300 s (n = 5). C Whole-cell patch-clamp recordings were performed at room temperature. Cells were voltage-clamped at − 60 mV, and responses to a 5-s stimulation of ATP (100 µM) followed by a 5-s stimulation of ATP (100 µM) + dioscin/diosgenin (10 µM) were measured from HEK-hP2X7 cells. Representative traces are shown. D Summary of normalised current amplitudes represented as a fold change compared to ATP responses in the absence of dioscin/diosgenin (n = 10–18 cells). E Concentration response to ATP in the presence of dioscin (10 µM, green) or vehicle (DMSO, black) using YO-PRO-1 uptake assay in HEK-hP2X7 and F HEK-293 cells. […] H HEK-293 cells were treated with dioscin or CK (10 µM) for 10 min and stained with propidium iodide to reveal permeabilised cells. Images taken with EVOS microscope

A short description of data set [2]: Cytotoxicity of purified glycoside (data not shown). It counts as cell-based.

Take `C[C@@H]1CC[C@@]2(OC1)O[C@H]1C[C@H]3[C@@H]4CC=C5C[C@@H](O[C@@H]6O[C@H](CO)[C@@H](O[C@@H]7O[C@@H](C)[C@H](O)[C@@H](O)[C@H]7O)[C@H](O)[C@H]6O[C@@H]6O[C@@H](C)[C@H](O)[C@@H](O)[C@H]6O)CC[C@]5(C)[C@H]4CC[C@]3(C)[C@H]1[C@@H]2C` [Dioscin, dioscin]: the “Sensitivity of the potentiated ATP response to P2X7 antagonist AZ10606120” value at P2X7 (AZ10606120 10 µM) is recorded as “could be reduced with AZ10606120”. Moreover, on P2X7 (co-stimulation with 200 µM ATP), the “Effect on YO-PRO-1 dye uptake with 200 µM ATP” value is “able to enhance YO-PRO-1 dye uptake”. In addition, at P2X7 (compound 10 µM), the “Effect on ATP concentration–response curve” value is listed as “increase in the maximum response with no leftward shift”. In addition, the “Effect on P2X7 responses” value at P2X7 (purified glycosides/aglycone from potentiating extracts) was “could effectively potentiate P2X7 responses”. Moreover, the “Cell death in non-transfected HEK-293 cells” value with HEK-293 cells is “induce cell death”. Moreover, the “Potentiation of hP2X7 ion channel opening” value on hP2X7 (10 µM with ATP 100 µM, 5-s application, −60 mV) is “could potentiate hP2X7 ion channel opening”. In addition, the “Ion channel opening by compound alone” value on hP2X7 (short 5-s application) was “not inducing ion channel opening itself”. Moreover, the “YO-PRO-1 dye uptake in non-transfected cells” value in data set [1] was “increase YO-PRO-1 dye uptake in non-transfected HEK-293 cells in the presence of ATP”. For the same compound, in the data set on HEK293 cells, the “Application time after which membrane permeabilisation was observed” value is reported as above 10 min. The Propidium iodide staining entry in the data set on HEK293 cells (10 µM, within 10 min of addition) is given as “induce propidium iodide staining”.

For the compound `CC1(C)CC[C@]2(C(=O)O)CC[C@]3(C)C(=CC[C@@H]4[C@@]5(C)CC[C@H](O[C@@H]6O[C@H](C(=O)O)[C@@H](O)[C@H](O[C@@H]7OC[C@@H](O)[C@H](O)[C@H]7O)[C@H]6O)C(C)(C)[C@@H]5CC[C@]43C)[C@@H]2C1` [Momordin Ic, momordin Ic], the Cytotoxicity result in data set [2] is “high level of cytotoxicity”.
